Measured values taken from patent US20260027116A1, “Methods of Treating Chronic Graft-Versus-Host Disease Following Allogeneic Hematopoietic Stem Cell Transplantation” (Kadmon Corporation, LLC, priority 2022, published 2026).

Test system: patients with cGVHD
Settings: Cohort 3 400 mg QD

CC(C)NC(=O)COc1cccc(-c2nc(Nc3ccc4[nH]ncc4c3)c3ccccc3n2)c1 [Belumosudil, 2-{3-[4-(1H-indazol-5-ylamino)-2-quinazolinyl]phenoxy}-N-(propan-2-yl) acetamide]
2/21 (9.52%): Gastrooesophageal reflux disease: Affected/At Risk (%) | Hyponatraemia: Affected/At Risk (%) | Influenza: Affected/At Risk (%) | Muscular weakness: Affected/At Risk (%) | Photophobia: Affected/At Risk (%)
3/21 (14.29%): Hyperglycemia: Affected/At Risk (%) | Hyperkalaemia: Affected/At Risk (%) | Hyperuricaemia: Affected/At Risk (%) | Hypothyroidism: Affected/At Risk (%) | Hypoxia: Affected/At Risk (%) | Insomnia: Affected/At Risk (%) | Myalgia: Affected/At Risk (%)
6/21 (28.57%): Headache: Affected/At Risk (%) | Muscle spasms: Affected/At Risk (%) | Oedema peripheral: Affected/At Risk (%)
3: Glucose urine present: # Events | Hypoxia: # Events | Insomnia: # Events | Myalgia: # Events
6: Hypertension: # Events | Muscle spasms: # Events | Oedema peripheral: # Events
5: Hyperuricaemia: # Events | Pain in extremity: # Events
9/21 (42.86%): Nausea: Affected/At Risk (%)
1: Generalised oedema: # Events | Hordeolum: # Events | Hyperhidrosis: # Events | Hyperthyroidism: # Events | Hypoaesthesia: # Events | Hypocalcaemia: # Events | Hypomagnesaemia: # Events | Hypophosphataemia: # Events | Joint range of motion decreased: # Events | Leukocytosis: # Events | Limb injury: # Events | Muscle spasticity: # Events | Musculoskeletal chest pain: # Events | Nasal congestion: # Events | Neutrophil count decreased: # Events | Non-cardiac chest pain: # Events | Oropharyngeal pain: # Events | Pain: # Events | Palpitations: # Events | Paraesthesia: # Events | Pleural effusion: # Events
8: Headache: # Events | Hyperglycemia: # Events
4: Hyperkalaemia: # Events | Hypothyroidism: # Events
0/21 (0%): Fungal infection: Affected/At Risk (%) | Gamma-glutamyltransferase increased: Affected/At Risk (%) | Gastric ulcer: Affected/At Risk (%) | Genital infection fungal: Affected/At Risk (%) | Graft versus host disease in gastrointestinal tract: Affected/At Risk (%) | Gynaecomastia: Affected/At Risk (%) | Hair growth abnormal: Affected/At Risk (%) | Hodgkin's disease recurrent: Affected/At Risk (%) | Hot flush: Affected/At Risk (%) | Hypertriglyceridaemia: Affected/At Risk (%) | Hypogonadism: Affected/At Risk (%) | Hypokalaemia: Affected/At Risk (%) | Hypothermia: Affected/At Risk (%) | Impaired healing: Affected/At Risk (%) | Influenza like illness: Affected/At Risk (%) | Irritability: Affected/At Risk (%) | Lacrimation increased: Affected/At Risk (%) | Leukaemia recurrent: Affected/At Risk (%) | Ligament sprain: Affected/At Risk (%) | Macular degeneration: Affected/At Risk (%) | Migraine: Affected/At Risk (%) | Nail disorder: Affected/At Risk (%) | Neck pain: Affected/At Risk (%) | Nephrotic syndrome: Affected/At Risk (%) | Nocturia: Affected/At Risk (%) | Obesity: Affected/At Risk (%) | Oedema: Affected/At Risk (%) | Oesophageal ulcer: Affected/At Risk (%) | Oral candidiasis: Affected/At Risk (%) | Orthopnoea: Affected/At Risk (%) | Osteonecrosis: Affected/At Risk (%) | Osteopenia: Affected/At Risk (%) | Osteoporosis: Affected/At Risk (%) | Overdose: Affected/At Risk (%) | Pericardial effusion: Affected/At Risk (%) | Peripheral coldness: Affected/At Risk (%) | Peripheral sensory neuropathy: Affected/At Risk (%) | Phlebitis: Affected/At Risk (%) | Platelet count decreased: Affected/At Risk (%)
1/21 (4.76%): Generalised oedema: Affected/At Risk (%) | Glucose urine present: Affected/At Risk (%) | Haematuria: Affected/At Risk (%) | Hordeolum: Affected/At Risk (%) | Hyperhidrosis: Affected/At Risk (%) | Hyperthyroidism: Affected/At Risk (%) | Hypoaesthesia: Affected/At Risk (%) | Hypocalcaemia: Affected/At Risk (%) | Hypomagnesaemia: Affected/At Risk (%) | Hypophosphataemia: Affected/At Risk (%) | Joint range of motion decreased: Affected/At Risk (%) | Leukocytosis: Affected/At Risk (%) | Limb injury: Affected/At Risk (%) | Muscle spasticity: Affected/At Risk (%) | Musculoskeletal chest pain: Affected/At Risk (%) | Nasal congestion: Affected/At Risk (%) | Neuropathy peripheral: Affected/At Risk (%) | Neutrophil count decreased: Affected/At Risk (%) | Non-cardiac chest pain: Affected/At Risk (%) | Oropharyngeal pain: Affected/At Risk (%) | Pain: Affected/At Risk (%) | Palpitations: Affected/At Risk (%) | Paraesthesia: Affected/At Risk (%)
0: Fungal infection: # Events | Gamma-glutamyltransferase increased: # Events | Gastric ulcer: # Events | Genital infection fungal: # Events | Glaucoma: # Events | Grade ≥3 ALT/AST increased, No. (%) | Grade ≥3 Anemia, No. (%) | Graft versus host disease in gastrointestinal tract: # Events | Gynaecomastia: # Events | Hair growth abnormal: # Events | Hodgkin's disease recurrent: # Events | Hot flush: # Events | Hypertriglyceridaemia: # Events | Hypogonadism: # Events | Hypokalaemia: # Events | Hypothermia: # Events | Impaired healing: # Events | Influenza like illness: # Events | Irritability: # Events | Lacrimation increased: # Events | Leukaemia recurrent: # Events | Ligament sprain: # Events | Macular degeneration: # Events | Migraine: # Events | Nail disorder: # Events | Neck pain: # Events | Nephrotic syndrome: # Events | Nocturia: # Events | Obesity: # Events | Oedema: # Events | Oesophageal ulcer: # Events | Oral candidiasis: # Events | Orthopnoea: # Events | Osteonecrosis: # Events | Osteopenia: # Events | Osteoporosis: # Events | Overdose: # Events | Pericardial effusion: # Events | Peripheral coldness: # Events | Peripheral sensory neuropathy: # Events | Phlebitis: # Events | Platelet count decreased: # Events
2: Gastrooesophageal reflux disease: # Events | Haematuria: # Events | Hyponatraemia: # Events | Influenza: # Events | Muscular weakness: # Events | Neuropathy peripheral: # Events | Photophobia: # Events
4/21 (19.05%): Hypertension: Affected/At Risk (%) | Pain in extremity: Affected/At Risk (%)
4 (19): Grade ≥3 Dyspnea, No. (%)
12: Nausea: # Events
14 (67): Grade ≥3 AE, No. (%)
2 (10): Grade ≥3 Hyperglycemia, No. (%) | Grade ≥3 Hypoxia, No. (%) | Grade ≥3 Lung infection or pneumonia, No. (%)
